{"source": "patent US5358707A", "about": "“Oxidized variants of GM-CSF” (Schering Corporation, priority 1992, dated 1994)", "key": {"KG-1 cells": {"tested_on": "KG-1 cells", "assay": "KG-1 Cell Bioassay (MTT, cell growth stimulation)", "assay_type": "cell-based, human", "procedure": "Briefly, cultures of about 1×10^4 cells were incubated with dilutions of the various proteins in Iscove's modified Dulbecco's medium at 37° C. for 6 days. The tetrazolium salt MTT (3-[4,5-Dimethylthiazol-2-yl]-2,5-diphenyltetrazolium bromide; Thiazolyl blue) was then added at a final concentration of 0.5 mg/ml, and incubation was continued for another 4 hours. MTT is cleaved by mitochondrial dehydrogenase enzymes to produce a colored reaction product, formazan, the quantity of which is directly related to LOG2 cell concentration."}, "[1]": {"assay": "Analytical isoelectric focusing", "assay_type": "physicochemical"}}, "note": "Several values for one entry are separate records, joined by “and”; a condition that tells them apart may be missing. Equal entries are not always repeated."}
{"substance": "GM-CSF: Unoxidized recombinant mature human GM-CSF produced in E. coli; designated V0 when isolated from the secretory expression extract", "values": [{"measurement": "Biological Activity (Units/mg × 10^-9)", "setting": "KG-1 cells; KG-1 cells, 6 days, MTT, titer from dilution producing 50% maximal cell growth stimulation vs standard GM-CSF, MET-O and V variants analysed at different times", "value": "2.9 Units/mg × 10^-9 and 5.3 Units/mg × 10^-9"}, {"measurement": "Biological Activity (% GM-CSF Activity)", "setting": "KG-1 cells; percentage of the unoxidized GM-CSF specific bioactivity of the same run", "value": 100, "unit": "%"}, {"measurement": "pI", "setting": "[1]", "value": "about 5.3"}]}
